The source of these data is publication PMC12297423, “Dual α-amylase and α-glucosidase inhibition by 1,2,4-triazole derivatives for diabetes treatment” (Scientific Reports, 2025).

The target of experiment [1] is Saccharomyces cerevisiae α-glucosidase. Nature of the experiment: In vitro α-glucosidase inhibition assay (BioVision kit, pNPG). Conditions: for %inh α-glucosidase: Table 2S. The format is biochemical. Here is the method:
Using BioVision’s α-Glucosidase Inhibitor Screening Kit (Colorimetric) (Catalogue #K938-100) at (OD: 410 nm), the in vitro α-glucosidase suppression effect for the designed 1,2,4-triazole derivatives 3, 4, 6, 8, 9, and 10 was carried out. The results were analyzed on a multi-well spectrophotometer (ELISA reader) using a 96-well microplate in compliance with the manufacturer’s instructions as previously described[49],[50]. The α-glucosidase inhibition assay was conducted using Saccharomyces cerevisiae α-glucosidase (0.5–1 U/mL in phosphate buffer, pH 6.8). Test compounds (63–1000 µg/mL) were pre-incubated with the enzyme at 37 °C for 10 min, followed by addition of pNPG (5 mM) and further incubation for 30 min. The reaction was stopped with 0.2 M Na2CO3, and absorbance was measured at 405 nm. […] Inhibition (%) was calculated as above, and IC50 values were derived from nonlinear regression analysis Table 2S.

Experiment [2] concerns the target T1, porcine pancreatic α-amylase (Sus scrofa, UniProt P00690).
T1 construct: purchased BioVision K482-100
T1 sequence (P00690 16-511): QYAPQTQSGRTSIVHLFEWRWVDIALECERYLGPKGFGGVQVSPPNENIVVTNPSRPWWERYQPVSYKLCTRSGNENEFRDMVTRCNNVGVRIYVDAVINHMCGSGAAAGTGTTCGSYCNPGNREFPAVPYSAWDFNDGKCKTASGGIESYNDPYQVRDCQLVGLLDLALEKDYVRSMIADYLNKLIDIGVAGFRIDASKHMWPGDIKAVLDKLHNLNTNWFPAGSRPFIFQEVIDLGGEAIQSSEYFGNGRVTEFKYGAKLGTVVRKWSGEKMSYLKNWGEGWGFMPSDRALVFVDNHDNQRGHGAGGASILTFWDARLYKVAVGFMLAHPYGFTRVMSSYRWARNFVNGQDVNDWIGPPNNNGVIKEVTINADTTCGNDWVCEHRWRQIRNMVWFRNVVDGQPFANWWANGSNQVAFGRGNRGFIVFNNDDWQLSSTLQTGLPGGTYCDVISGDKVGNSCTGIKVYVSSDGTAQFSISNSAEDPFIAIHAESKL
Nature of the experiment: In vitro α-amylase inhibition assay (BioVision kit / modified DNSA method). The format is biochemical. Conditions: for %inh α-amylase: Table 1S. Here is the method: The α-amylase inhibition assay was performed using a modified DNSA (3,5-dinitrosalicylic acid) method. Test compounds (dissolved in DMSO) were serially diluted (100, 10, 1, 0.1, and 0.01 µg/mL) and pre-incubated with porcine pancreatic α-amylase (0.5 U/mL in phosphate buffer, pH 6.8) at 37 °C for 10 min. Starch solution (1% w/v) was added, and the reaction proceeded for 30 min at 37 °C. The reaction was terminated by adding DNSA reagent, followed by heating at 85 °C for 10 min. Absorbance was measured at 540 nm using a microplate reader. […] The percentage inhibition was calculated as: [(Acontrol–Asample)/Acontrol] × 100, where Acontrol represents enzyme activity without inhibitor. IC50 values were determined from dose-response curves using GraphPad Prism. Kinetic parameters (KActivity) were derived from ∆RFU (Relative Fluorescence Units) and slope values Table 1S.

The mark [3] stands for this setting: read-out: α-amylase inhibition IC50 (converted).
[4] abbreviates: table printed in Fig. 9, read-out: α- Amylase IC50 (converted).

Like-named read-outs stand apart in the source and are kept apart here.

As to `COc1ccc(Cc2nnc(SCC(=O)Nc3ccc(O)cc3)n2-c2ccccc2)cc1` [Compound 9, N-(4-hydroxyphenyl)-2-((5-(4-methoxybenzyl)-4-phenyl-4H-1,2,4-triazol-3-yl)thio)acetamide], the “α-glucosidase inhibition IC50” value in experiment [1] was 0.77 ± 0.02 µg/mL. The “%inh α-glucosidase” value is recorded as 4.22% in experiment [1] (conc 63 (µg/mL)); 7.76% in experiment [1] (conc 125 (µg/mL)); 14% in experiment [1] (conc 250 (µg/mL)); 31.9% in experiment [1] (conc 500 (µg/mL)); 68.2% in experiment [1] (conc 1000 (µg/mL)). Moreover, the “%inh α-amylase” value in experiment [2] (conc 0.01 (µg/mL)) is 20.6%; in experiment [2] (conc 0.1 (µg/mL)) it was 35.3%; in experiment [2] (conc 1 (µg/mL)), 48.3%; in experiment [2] (conc 10 (µg/mL)) it was 73.3%; in experiment [2] (conc 100 (µg/mL)), 90%. The half-maximal inhibitory concentration (IC50) is 1410 nM in experiment [2] (setting [3]) and 1420 nM in experiment [2] (setting [4]).

As to `CCOC(=O)c1ccc(NC(=O)CSc2nnc(Cc3ccc(OC)cc3)n2-c2ccccc2)cc1` [Compound 8, Ethyl 4-(2-((5-(4-methoxybenzyl)-4-phenyl-4H-1,2,4-triazol-3-yl)thio)acetamido)benzoate], the “α-glucosidase inhibition IC50” value in experiment [1] came to 0.67 ± 0.02 µg/mL. For the same compound, the “%inh α-glucosidase” value in experiment [1] (conc 63 (µg/mL)) stood at 1.46%; in experiment [1] (conc 125 (µg/mL)), 5.94%; in experiment [1] (conc 250 (µg/mL)), 18.4%; in experiment [1] (conc 500 (µg/mL)), 38.9%; in experiment [1] (conc 1000 (µg/mL)), 67.3%. For the same compound, the “%inh α-amylase” value was found to be 12% in experiment [2] (conc 0.01 (µg/mL)); 29.3% in experiment [2] (conc 0.1 (µg/mL)); 41.6% in experiment [2] (conc 1 (µg/mL)); 63.1% in experiment [2] (conc 10 (µg/mL)); 88.7% in experiment [2] (conc 100 (µg/mL)). Besides, the half-inhibitory concentration (IC50) in experiment [2] (setting [3]) and in experiment [2] (setting [4]) was 2890 nM throughout.

As for `COc1ccc(Cc2nnc(SCC(=O)Nc3ccccc3)n2-c2ccccc2)cc1` [Compound 3, 2-((5-(4-methoxybenzyl)-4-phenyl-4H-1,2,4-triazol-3-yl)thio)-N-phenylacetamide], the “α-glucosidase inhibition IC50” value in experiment [1] is 0.36 ± 0.01 µg/mL. Besides, the “%inh α-glucosidase” value was 15.7% in experiment [1] (conc 63 (µg/mL)); 30% in experiment [1] (conc 125 (µg/mL)); 40.9% in experiment [1] (conc 250 (µg/mL)); 58.5% in experiment [1] (conc 500 (µg/mL)); 77% in experiment [1] (conc 1000 (µg/mL)). The “%inh α-amylase” value in experiment [2] (conc 0.01 (µg/mL)) is listed as 19.9%; in experiment [2] (conc 0.1 (µg/mL)), 36.7%; in experiment [2] (conc 1 (µg/mL)), 58.4%; in experiment [2] (conc 10 (µg/mL)) it was 83.4%; in experiment [2] (conc 100 (µg/mL)), 92.3%. The IC50 in experiment [2] (setting [3]) is 859 nM; in experiment [2] (setting [4]), 876 nM.

In the case of `COc1ccc(Cc2nnc(SCC(=O)Nc3ccc(C(C)=O)cc3)n2-c2ccccc2)cc1` [Compound 4, N-(4-acetylphenyl)-2-((5-(4-methoxybenzyl)-4-phenyl-4H-1,2,4-triazol-3-yl)thio)acetamide], the “α-glucosidase inhibition IC50” value in experiment [1] is recorded as 0.27 ± 0.01 µg/mL. In addition, the “%inh α-glucosidase” value in experiment [1] (conc 63 (µg/mL)) is 19.9%; in experiment [1] (conc 125 (µg/mL)) it was 36.6%; in experiment [1] (conc 250 (µg/mL)) it was 50.9%; in experiment [1] (conc 500 (µg/mL)) it was 63.6%; in experiment [1] (conc 1000 (µg/mL)) it was 82.4%. Further, the “%inh α-amylase” value in experiment [2] (conc 0.01 (µg/mL)) stood at 25.8%; in experiment [2] (conc 0.1 (µg/mL)), 44.6%; in experiment [2] (conc 1 (µg/mL)), 62.6%; in experiment [2] (conc 10 (µg/mL)), 85.7%; in experiment [2] (conc 100 (µg/mL)), 93.1%. Moreover, the IC50 is 402 nM in experiment [2] (setting [3]) and 419 nM in experiment [2] (setting [4]).

As to `COc1ccc(Cc2nnc(SCC(=O)Nc3ccc(C(=O)O)cc3)n2-c2ccccc2)cc1` [Compound 6, 4-(2-((5-(4-methoxybenzyl)-4-phenyl-4H-1,2,4-triazol-3-yl)thio)acetamido)benzoic acid], in experiment [1], the “α-glucosidase inhibition IC50” value came out at 0.83 ± 0.03 µg/mL. The “%inh α-glucosidase” value in experiment [1] (conc 63 (µg/mL)) was 1.67%; in experiment [1] (conc 125 (µg/mL)), 4.01%; in experiment [1] (conc 250 (µg/mL)) it was 7.55%; in experiment [1] (conc 500 (µg/mL)), 28.9%; in experiment [1] (conc 1000 (µg/mL)), 69.2%. The “%inh α-amylase” value in experiment [2] (conc 0.01 (µg/mL)) is on record as 14.4%; in experiment [2] (conc 0.1 (µg/mL)) it was 19.9%; in experiment [2] (conc 1 (µg/mL)), 40.6%; in experiment [2] (conc 10 (µg/mL)) it was 74.1%; in experiment [2] (conc 100 (µg/mL)) it was 91.3%. In addition, the IC50 in experiment [2] (setting [3]) is 2610 nM; in experiment [2] (setting [4]), 2620 nM.

`COc1ccc(Cc2nnc(SCC(=O)Nc3ccc(Br)cc3)n2-c2ccccc2)cc1` [Compound 10, N-(4-bromophenyl)-2-((5-(4-methoxybenzyl)-4-phenyl-4H-1,2,4-triazol-3-yl)thio)acetamide]: the “α-glucosidase inhibition IC50” value in experiment [1] amounted to 0.31 ± 0.01 µg/mL. Also, the “%inh α-glucosidase” value was 16.3% in experiment [1] (conc 63 (µg/mL)); 25.1% in experiment [1] (conc 125 (µg/mL)); 39.9% in experiment [1] (conc 250 (µg/mL)); 58% in experiment [1] (conc 500 (µg/mL)); 82.8% in experiment [1] (conc 1000 (µg/mL)). The “%inh α-amylase” value in experiment [2] (conc 0.01 (µg/mL)) was 29.2%; in experiment [2] (conc 0.1 (µg/mL)) it was 41.2%; in experiment [2] (conc 1 (µg/mL)), 56.1%; in experiment [2] (conc 10 (µg/mL)) it was 77.6%; in experiment [2] (conc 100 (µg/mL)), 92.3%. The IC50 is 510 nM in experiment [2] (setting [3]) and 528 nM in experiment [2] (setting [4]).

For the compound `C[C@H]1O[C@H](O[C@H]2[C@H](O)[C@@H](O)[C@@H](O[C@H]3[C@H](O)[C@@H](O)C(O)O[C@@H]3CO)O[C@@H]2CO)[C@H](O)[C@@H](O)[C@@H]1N[C@H]1C=C(CO)[C@@H](O)[C@H](O)[C@H]1O` (some centres unmarked) [Acarbose, reference compound], the “%inh α-glucosidase” value is 8.91% in experiment [1] (conc 63 (µg/mL)); 28% in experiment [1] (conc 125 (µg/mL)); 40.6% in experiment [1] (conc 250 (µg/mL)); 58.6% in experiment [1] (conc 500 (µg/mL)); 76.8% in experiment [1] (conc 1000 (µg/mL)).
